# Measured values as given in PubChem BioAssay AID179 (DTP/NCI, 2004).
# Calls of active or inactive are those of the source.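 How the source made its calls: active means compounds giving half or more protection of infected cells from virus-caused growth loss, again on retest; inactive means the rest.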 Where a SMILES comes first, the peptide text is derived from it. The star is where a group is joined. Myristoyl = CCCCCCCCCCCCCC(=O)*
# Tested on: CEM cells HIV-1 protection, formazan growth assay
# Assay: NCI AIDS Antiviral Assay
# Conditions: for IC50: measured here: growth of uninfected CEM cells
# Outline: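 Five concentrations of each compound were applied to infected and uninfected human CEM cells. Protection from HIV-1 was judged from growth measured with a soluble formazan assay.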
Structure (SMILES),EC50 [µM],IC50 [µM],outcome
COc1ccc(-c2c(C(C)=O)c(-c3ccccc3)n(C3OC(CO)C(O)C(O)C3O)c(=S)c2C#N)cc1 (centres undefined),> 200,> 200,
Cc1nc2c(Cl)cc(Cl)cc2c(Cl)c1CCCl,> 200,> 200,
Cn1c(C(O)C2(c3cccnc3)SCCCS2)cc2ccccc21 (centres undefined),> 200,75.9,
CCC(=O)OC1(c2ccccc2)CCN(CCC(=O)c2ccccc2)CC1C (centres undefined),> 200,9.55,
CC(=O)c1c(N=[N+]=[N-])c2cccc3c2n(c1=O)CCC3,> 200,30.9,
CC(=O)Nc1nnc2c3ccccc3n(C(C)=O)c2n1,> 200,3.55,
O=C(NC(Cl)(C(F)(F)F)C(F)(F)F)c1ccc(F)cc1,> 200,> 200,
CC(C)OC(=S)Nc1ccc(Cl)c(COC(C)(C)C)c1,5.37,31.6,
COc1ccc(OC)c(N=Nc2cc(OC)c(N=Nc3c(O)c4ccccc4[nH]c3=O)cc2Cc2ccccc2C(=O)O)c1,> 50.1,31.6,
CCC(C)C(NC(=O)CNC(=O)C(Cc1c[nH]c2ccccc12)NC(=O)C(NC(=O)C(NC(=O)C(N)CC(C)C)C(C)O)C(C)C)C(=O)NC(CCCCN)C(=O)NC(CCC(N)=O)C(=O)NC(CC(C)C)C(=O)NC(CCC(N)=O)C(=O)NC(C)C(=O)NC(CCCN=C(N)N)C(N)=O (centres undefined) (H-LTVWGIKQLQAR-NH2; configuration not given here),> 50.1,> 50.1,
CC1(C)OC2OC(C(O)COC(=O)c3ccccc3)C(Cl)C2O1 (centres undefined),> 219,151,
CNNC1=NS(=O)(=O)c2cc(C#N)c(Cl)cc2S1,,,inactive
Cc1cc2cc3cc(C)c(N)cc3nc2cc1N,> 2,0.661,
COc1ccc(C=C2C(=O)OC(C)(C)OC2=O)cc1OC,> 170,> 170,
NC(Cc1ccc(O)cn1)C(=O)NC(C(=O)O)c1ccccc1 (centres undefined),> 200,> 200,
CCC1=C(C(C)=O)[C@@H]2CCCCC[C@@H](C(=O)OC)C2C1=O (some centres undefined),191,> 200,
Cc1cc(Br)ccc1NC1=CC(=O)C(=O)c2ccccc21,> 2.19,> 2.19,
COC(=O)c1nc(NC#N)[nH]c(=O)c1C,> 34.7,> 34.7,
O=C1C(Cl)C(c2ccc(O)cc2)N1n1cnc2ccccc2c1=O (centres undefined),> 15.1,> 15.1,
O=C1c2ccccc2C(=O)c2nc3c(O)cccc3cc21,> 19.1,> 19.1,
Cn1cnc([N+](=O)[O-])c1Sc1nc2cc(Cl)c(F)cc2[nH]1,> 8.32,3.09,

Structure (SMILES),EC50 [µM],IC50 [µM],outcome
O=C(O)CCC(=O)N1c2ccccc2CC1c1c[nH]c2ccccc12 (centres undefined),> 741,158,
Cn1c(=O)c2c(c3cc(O)ccc31)OC(C(C)(C)O)C2 (centres undefined),> 617,112,
O=[N+]([O-])c1cccc2nc3ccccc3c(NCCCN3CCOCC3)c12,> 0.2,0.0631,
COc1cc(C2C(Cl)C(=O)N2n2cnc3ccccc3c2=O)ccc1O (centres undefined),> 676,30.2,
COc1cc(C=C2C(=O)NC(=O)NC2=O)ccc1OCc1ccccc1,> 93.3,89.1,
c1cnc2c(c1)Sc1ncccc1S2,> 115,51.3,
O=C1C(O)=C(c2ccccc2)S(=O)(=O)C1c1ccccc1 (centres undefined),> 200,79.4,
CCOC(=O)c1cnc2c3c(noc13)CCC2,> 200,34.7,
COc1ccc(C(=O)N2CCc3c([nH]c4ccccc34)C2C(=O)O)o1 (centres undefined),> 39.8,17.4,
COP(C)(=O)/C(Cc1ccccc1)=N\O (centres undefined),> 200,> 200,
CC1(C)OC2OC(C(COS(=O)(=O)C(F)(F)F)N=[N+]=[N-])C(OC(=O)c3ccccc3)C2O1 (centres undefined),> 200,> 200,
C#CC1(O)CCC2[C@@H]3CCc4cc(Oc5nc(F)nc(-c6c(C)c(C(=O)OCC)n7ccccc67)n5)ccc4C3CC[C@@]21C (some centres undefined),> 100,> 100,
O=C(CCC(=O)C1Cc2ccccc2C1=O)Nc1cccc(C(F)(F)F)c1 (centres undefined),> 661,> 661,
COc1cc(/C=C(\C#N)c2ccc(Cl)cc2)ccc1OCc1ccccc1,> 200,> 200,
Cc1ccc2c(c1C)C(=O)/C(=C/c1ccccc1C(=O)O)C2,38,93.3,
COc1c2c3c(ccnc3c3ccccc13)C(=O)N2C,> 200,9.55,
O=C(Nc1ccc(Cl)cc1Cl)C(=O)C(C(=O)c1ccncc1)C1OC(=O)c2ccccc21 (centres undefined),> 178,> 178,
CC[C@@]1(O)C(=O)OCc2c1cc1n(c2=O)Cc2cc3c(CN(C)C)c(O)ccc3nc2-1,,,inactive
NC(=Nc1ccc(S(=O)(=O)Nc2cnc3ccccc3n2)cc1)/N=C(/N)Nc1ccc(Br)cc1,> 87.1,> 87.1,
C[C@]12CC[C@@H]3c4cc(OCC(F)(F)F)c(O)cc4CC[C@H]3[C@@H]1CC[C@@H]2O,> 0.2,0.0676,
O=C(CN(c1ccc(S(=O)(=O)O)cc1)c1ccc(S(=O)(=O)O)cc1)Nn1cnc2ccc(S(=O)(=O)N(c3ccc(S(=O)(=O)O)cc3)c3ccc(S(=O)(=O)O)cc3)cc2c1=O,> 100,95.5,

Structure (SMILES),EC50 [µM],IC50 [µM],outcome
CC(Sc1ccccc1)C(=O)N1CCCC1 (centres undefined),> 100,> 100,
CNc1cc([N+](=O)[O-])ccc1C(=O)N1CCC[C@H]1CO,> 200,> 200,
OC1(c2ccccc2)CC2CCC(C1)N2CCCC1(c2ccc(F)cc2)OCCO1 (centres undefined),> 200,162,
COC12CCCC1S(=O)(=O)C2 (centres undefined),,,inactive
C[N+]12CCC(c3ccccc3)(CC1)C(O)C2 (centres undefined),> 832,741,
Nc1nc2c(ncn2COCCO)c(=O)[nH]1,> 794,> 794,
CC1(C)OC2C(CF)OC(n3cc(Br)c(=O)[nH]c3=O)C2O1 (centres undefined),> 200,> 200,
O=C(Cc1ccccc1)NN1C(=O)C(Cl)C1c1ccc(O)cc1 (centres undefined),> 204,170,
c1csc(-c2cscc2-c2cccs2)c1,> 200,37.2,
CC(=O)OCC(OC(C)=O)C(OC(C)=O)C(Cn1c(=O)cc(C)c2ccc(C)c(C)c21)OC(C)=O (centres undefined),> 200,> 200,
O=C1/C(=C2\Sc3c(ccc(Cl)c3Cl)C2=O)Sc2c1ccc(Cl)c2Cl,> 200,> 200,
COc1ccc(C2Oc3c(cc(O)c(OC)c3C)[C@@H]2C)cc1OC (some centres undefined),> 79.4,47.9,
N#CC1CCCCC1NC1(C#N)CCCCC1 (centres undefined),> 195,> 195,
COc1ccc2c(c1)[nH]c1c(C)c3ccncc3c(C)c12,> 200,0.112,
Cc1cccc(NC(=S)N=Nc2c(O)[nH]c3ccccc23)c1,> 200,117,
O=c1ssc2ncccc12,> 295,> 100,
CC(=O)CCC#Cc1ccccc1C(=O)C(C)=[N+]=[N-],> 50.1,> 50.1,
S=C1SCN2CCN3CSC(=S)N(CCN1C2)C3,> 81.3,> 81.3,
O=c1[nH]c2ccccc2c(=O)n1/N=C/c1ccc(O)cc1,> 200,> 200,
CCOC(=O)c1nnsc1NC(=O)NCCCCCCn1c(=O)n(CCCCCCNC(=O)Nc2snnc2C(=O)OCC)c(=O)n(CCCCCCNC(=O)Nc2snnc2C(=O)OCC)c1=O,> 200,> 200,
N#CC1(c2ccccc2)CCN(Cc2ccccc2)CC1,> 115,60.3,

Structure (SMILES),EC50 [µM],IC50 [µM],outcome
O=C1CCCC(=O)NNC(=O)Nc2ccc(cc2)Cc2ccc(cc2)NC(=O)NN1,> 30.9,> 30.9,
Cc1ccc(S(=O)(=O)c2ccc(C)cc2[N+](=O)[O-])cc1,> 24.5,> 24.5,
Cc1ccc2c(/C=C/c3ccc(N(C)C)cc3)ccc(C(C)C)cc1-2,> 200,151,
O=C1NC(N/N=C\C(O)C(O)C(O)CO)=N/C1=C/c1ccc(Cl)cc1 (centres undefined),> 200,30.2,inactive
S=C(N/N=C(\c1ccccc1)c1ccccn1)NC1CCCCC1,> 200,2.4,
CNc1ccc(N)cc1C(=O)N1CCC[C@H]1CO,> 200,> 200,
CCCCCCCCCCCCCC(=O)NCC(=O)NC(C)C(=O)NC(CCCNC(=N)N)C(=O)NC(C)C(=O)NC(CO)C(=O)NC(C(=O)NC(CC(C)C)C(=O)NC(CO)C(=O)NCC(=O)NCC(=O)NC(CCC(=O)O)C(=O)NC(CC(C)C)C(=O)NC(CC(=O)O)C(=O)NC(CCCNC(=N)N)C(=O)NC(Cc1c[nH]c2ccccc12)C(=O)NC(Cc1ccc(O)cc1)C(N)=O)C(C)C (centres undefined) (Myristoyl-GARASVLSGGELDRWY-NH2; configuration not given here),> 129,> 129,
NC(=NCC(=O)O)c1ncn(C2OC(CO)C(O)C2O)n1 (centres undefined),,,inactive
CCOC(=O)N1CCN(P(=O)(Nc2ccc3nc(NC(=O)OC)[nH]c3c2)Oc2ccccc2)CC1 (centres undefined),> 135,53.7,
NNC(=O)c1c(SCc2ccccc2)nc2c3ccccc3ccn12,> 200,15.8,
CC1OCC2OC(C)OC(C3C4=C(CC(C)(C)CC4=O)OC4=C3C(=O)CC(C)(C)C4)C2O1 (centres undefined),> 562,550,
O=Nc1c(-c2ccccc2)nnc(-c2ccccc2)c1N=O,> 9.33,> 9.33,
O=S1(=O)c2ccccc2N2CCCc3cc(Cl)cc1c32,> 200,> 200,
CCOC(=O)C(CC1OCCO1)C1=NC(C)(C)CC(C)O1 (centres undefined),> 200,> 200,
Cc1cn(C2CC(CO)N(CCO)O2)c(=O)[nH]c1=O (centres undefined),> 200,> 200,
COc1ccccc1NCc1cccc2c(=O)c3ccc(Cl)cc3oc12,> 151,46.8,
COC(=O)C1C(C(=O)OC)C2(OC)c3ccccc3-c3ccccc3C12 (centres undefined),> 200,21.4,
O=C1C(N=Nc2ccc(Cl)cc2)Sc2nc3ccccc3n21 (centres undefined),,,inactive
Cc1c(C(=O)Nc2ccccc2)nnn1-c1ccnc2cc(C(F)(F)F)ccc12,> 200,> 200,
CNC(C#N)c1ccc(OC)cc1 (centres undefined),> 200,105,
CC(=O)SC1CC(=O)OC1=O (centres undefined),> 200,> 200,
